According to patent US6936585B2, “Corticotropin releasing factor 2 receptor agonists” (priority 2002, dated 2005):
Ends that are not written are not given here. Peptide text beside a SMILES is read from it.

How the values were obtained:
CRF2R = target: T1, CRF2R (Homo sapiens, UniProt Q13324); assay: CRF2R agonist activation (EC50 / Emax), called comparative CRF binding; format: cell-based; settings: read-out: CRF2R Emax
T1 sequence (Q13324 1-411): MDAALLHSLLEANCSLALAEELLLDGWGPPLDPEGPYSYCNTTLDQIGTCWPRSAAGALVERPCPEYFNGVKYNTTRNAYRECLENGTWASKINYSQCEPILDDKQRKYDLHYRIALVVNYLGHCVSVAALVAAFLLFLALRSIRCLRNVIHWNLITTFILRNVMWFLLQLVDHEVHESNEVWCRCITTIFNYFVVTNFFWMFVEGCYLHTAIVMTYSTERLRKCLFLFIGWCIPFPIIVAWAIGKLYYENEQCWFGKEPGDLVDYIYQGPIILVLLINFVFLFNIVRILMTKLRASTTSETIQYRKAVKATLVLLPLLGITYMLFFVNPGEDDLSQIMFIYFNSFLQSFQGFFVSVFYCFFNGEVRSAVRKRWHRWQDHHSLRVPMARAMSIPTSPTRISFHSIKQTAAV
Description: (§1) The pharmacological activity and selectivity of the peptides of present invention can be determined using published test procedures. See, e.g, U.S. patent application Ser. No. 09/799,978 (now issued U.S. Pat. No. 6,670,140). Because CRF2R and CRF1R are homologous proteins, it is expected that a certain proportion of agonists for CRF2R will also function as agonists of CRF1R. As discussed above, activation of CRF1R induces activation of the HPA axis since increased corticosteroid production leads to skeletal muscle atrophy. In most cases in which an increase in muscle mass or function is desired, it is not desirable to activate the HPA axis.
(§2) Cell-based assays include the steps of contacting cells which express CRF1R or CRF2R with a peptide of the present invention or control and measuring activation of the CRFR by measuring the expression or activity of components of the CRFR signal transduction pathways.
(§3) For example, after contact with a peptide of the present invention, lysates of the cells can be prepared and assayed for induction of cAMP. cAMP is induced in response to Gαs activation. Because Gαs is activated by receptors other than CRFR and because a test peptide may be exerting its effect through CRFRs or by another mechanism, two control comparisons are relevant for determining whether the peptide increases levels of cAMP via activation of a CRFR. One control compares the cAMP level of cells contacted with the peptide and the cAMP level of cells contacted with a control compound (i.e., the vehicle in which the peptide is dissolved).
(§4) In one example, cAMP induction is measured with the use of DNA constructs containing the cAMP responsive element linked to any of a variety of reporter genes can be introduced into cells expressing CRFRs. Such reporter genes include, but are not limited to, chloramphenicol acetyltransferase (CAT), luciferase, glucuronide synthetase, growth hormone, fluorescent proteins (e.g., Green Fluorescent Protein), or alkaline phosphatase. Following exposure of the cells to the peptide, the level of reporter gene expression can be quantitated to determine the peptide's ability to increase cAMP levels and thus determine the peptide's ability to activate the CRFR.
(§5) In addition to using cells expressing full length CRFRs, cells can be engineered which express CRFRs containing the ligand binding domain of the receptor coupled to, or physically modified to contain, reporter elements or to interact with signaling proteins. For example, a wild type CRFR or CRFR fragment can be fused to a G-protein resulting in activation of the fused G-protein upon agonist binding to the CRFR portion of the fusion protein. […] In addition, alternative pathways for induction of the CRE reporter could be eliminated to reduce basal levels.

CRF1R = target: T2, CRF1R (Homo sapiens, UniProt P34998); assay: CRF1R agonist activation (EC50 / Emax), called comparative CRF binding; format: cell-based; settings: for Emax: read-out: CRF1R Emax; for EC50: read-out: CRF1R EC50
T2 sequence (P34998 24-415): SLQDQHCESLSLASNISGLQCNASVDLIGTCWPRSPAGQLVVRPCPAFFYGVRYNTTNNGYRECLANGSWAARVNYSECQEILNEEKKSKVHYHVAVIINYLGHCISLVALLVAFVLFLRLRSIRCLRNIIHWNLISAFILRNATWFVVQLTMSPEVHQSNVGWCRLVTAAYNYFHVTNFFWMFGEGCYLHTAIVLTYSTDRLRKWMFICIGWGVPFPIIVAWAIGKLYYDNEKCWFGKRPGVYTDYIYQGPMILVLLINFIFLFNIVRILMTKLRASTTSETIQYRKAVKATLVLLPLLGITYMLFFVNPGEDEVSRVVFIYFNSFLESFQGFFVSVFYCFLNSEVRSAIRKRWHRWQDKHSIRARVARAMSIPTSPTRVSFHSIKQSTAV
Description: as §1, §2, §3, §4, §5

Compound | Emax (CRF2R) [%] | Emax (CRF1R) [%] | EC50 (CRF1R) [nM]
CC[C@H](C)[C@H](N)C(=O)N[C@H](C(=O)N[C@@H](CC(C)C)C(=O)N[C@@H](CO)C(=O)N[C@@H](CC(C)C)C(=O)N[C@@H](CC(=O)O)C(=O)N[C@H](C(=O)N1CCC[C@H]1C(=O)N[C@H](C(=O)NCC(=O)N[C@@H](CC(C)C)C(=O)N[C@@H](CC(C)C)C(=O)N[C@@H](CCC(N)=O)C(=O)N[C@@H](CCC(=O)O)C(=O)N[C@@H](CC(C)C)C(=O)N[C@@H](CC(C)C)C(=O)N[C@@H](CCC(=O)O)C(=O)N[C@@H](CCSC)C(=O)N[C@@H](C)C(=O)N[C@@H](CCCNC(=N)N)C(=O)N[C@@H](C)C(=O)N[C@@H](CCC(=O)O)C(=O)N[C@@H](CCC(N)=O)C(=O)N[C@@H](CC(C)C)C(=O)N[C@@H](C)C(=O)N[C@@H](CCC(N)=O)C(=O)N[C@@H](CCC(N)=O)C(=O)N[C@@H](C)C(=O)N[C@@H](Cc1c[nH]cn1)C(=O)N[C@@H](CO)C(=O)N[C@@H](CC(N)=O)C(=O)N[C@@H](CCCNC(=N)N)C(=O)N[C@@H](CCCCN)C(=O)N[C@@H](CC(C)C)C(=O)N[C@@H](CCSC)C(=O)N[C@@H](CCC(=O)O)C(=O)N[C@H](C(=O)N[C@H](C(N)=O)[C@@H](C)CC)[C@@H](C)CC)[C@@H](C)CC)C(C)C)C(C)C [compound 1] (H-IVLSLDVPIGLLQELLEMARAEQLAQQAHSNRKLMEII-NH2; N-terminus assumed) | 100 | 64 | –
CC[C@H](C)[C@H](N)C(=O)N[C@H](C(=O)N[C@@H](CC(C)C)C(=O)N[C@@H](CO)C(=O)N[C@@H](CC(C)C)C(=O)N[C@@H](CC(=O)O)C(=O)N[C@H](C(=O)N1CCC[C@H]1C(=O)N[C@H](C(=O)NCC(=O)N[C@@H](CC(C)C)C(=O)N[C@@H](CC(C)C)C(=O)N[C@@H](CCC(N)=O)C(=O)N[C@H](C(=O)N[C@@H](CC(C)C)C(=O)N[C@@H](CC(C)C)C(=O)N[C@@H](CCC(=O)O)C(=O)N[C@@H](CCC(N)=O)C(=O)N[C@@H](CCC(=O)O)C(=O)N[C@@H](CCCCN)C(=O)N[C@@H](C)C(=O)N[C@@H](CCCNC(=N)N)C(=O)N[C@@H](C)C(=O)N[C@@H](C)C(=O)N[C@@H](CCCNC(=N)N)C(=O)N[C@@H](CCC(=O)O)C(=O)N[C@@H](CCC(N)=O)C(=O)N[C@@H](C)C(=O)N[C@H](C(=O)N[C@H](C(=O)N[C@@H](CC(N)=O)C(=O)N[C@@H](C)C(=O)N[C@@H](CCCNC(=N)N)C(=O)N[C@H](C(=O)N[C@@H](CC(C)C)C(=O)N[C@@H](C)C(=O)N[C@@H](CCCNC(=N)N)C(=O)N[C@H](C(N)=O)C(C)C)[C@@H](C)CC)[C@@H](C)O)[C@@H](C)O)[C@@H](C)CC)[C@@H](C)CC)C(C)C)C(C)C [compound 107] (H-IVLSLDVPIGLLQILLEQEKARAAREQATTNARILARV-NH2; N-terminus assumed) | 87.9 | – | –
CC[C@H](C)[C@H](N)C(=O)N[C@H](C(=O)N[C@@H](CC(C)C)C(=O)N[C@@H](CO)C(=O)N[C@@H](CC(C)C)C(=O)N[C@@H](CC(=O)O)C(=O)N[C@H](C(=O)N1CCC[C@H]1C(=O)N[C@H](C(=O)NCC(=O)N[C@@H](CC(C)C)C(=O)N[C@@H](CC(C)C)C(=O)N[C@@H](CCC(N)=O)C(=O)N[C@H](C(=O)N[C@@H](CC(C)C)C(=O)N[C@@H](CC(C)C)C(=O)N[C@@H](CCC(=O)O)C(=O)N[C@@H](CCC(N)=O)C(=O)N[C@@H](C)C(=O)N[C@@H](CCCCN)C(=O)N[C@@H](C)C(=O)N[C@@H](CCCNC(=N)N)C(=O)N[C@@H](C)C(=O)N[C@@H](C)C(=O)N[C@@H](CCCNC(=N)N)C(=O)N[C@@H](CCC(=O)O)C(=O)N[C@@H](CCC(N)=O)C(=O)N[C@@H](C)C(=O)N[C@H](C(=O)N[C@H](C(=O)N[C@@H](CC(N)=O)C(=O)N[C@@H](C)C(=O)N[C@@H](CCCNC(=N)N)C(=O)N[C@H](C(=O)N[C@@H](CC(C)C)C(=O)N[C@@H](C)C(=O)N[C@@H](CCCNC(=N)N)C(=O)N[C@H](C(N)=O)C(C)C)[C@@H](C)CC)[C@@H](C)O)[C@@H](C)O)[C@@H](C)CC)[C@@H](C)CC)C(C)C)C(C)C [compound 127] (H-IVLSLDVPIGLLQILLEQAKARAAREQATTNARILARV-NH2; N-terminus assumed) | – | – | > 100
CC[C@H](C)[C@H](N)C(=O)N[C@H](C(=O)N[C@@H](CC(C)C)C(=O)N[C@@H](CO)C(=O)N[C@@H](CC(C)C)C(=O)N[C@@H](CC(=O)O)C(=O)N[C@H](C(=O)N1CCC[C@H]1C(=O)N[C@H](C(=O)NCC(=O)N[C@@H](CC(C)C)C(=O)N[C@@H](CC(C)C)C(=O)N[C@@H](CCC(N)=O)C(=O)N[C@H](C(=O)N[C@@H](CC(C)C)C(=O)N[C@@H](CC(C)C)C(=O)N[C@@H](CCC(=O)O)C(=O)N[C@@H](CCC(N)=O)C(=O)N[C@H](C(=O)N[C@@H](CCCCN)C(=O)N[C@@H](C)C(=O)N[C@@H](CCCNC(=N)N)C(=O)N[C@@H](C)C(=O)N[C@@H](C)C(=O)N[C@@H](CCCNC(=N)N)C(=O)N[C@@H](CCC(=O)O)C(=O)N[C@@H](CCC(N)=O)C(=O)N[C@@H](C)C(=O)N[C@H](C(=O)N[C@H](C(=O)N[C@@H](CC(N)=O)C(=O)N[C@@H](C)C(=O)N[C@@H](CCCNC(=N)N)C(=O)N[C@H](C(=O)N[C@@H](CC(C)C)C(=O)N[C@@H](C)C(=O)N[C@@H](CCCNC(=N)N)C(=O)N[C@H](C(N)=O)C(C)C)[C@@H](C)CC)[C@@H](C)O)[C@@H](C)O)[C@@H](C)O)[C@@H](C)CC)[C@@H](C)CC)C(C)C)C(C)C [compound 129] (H-IVLSLDVPIGLLQILLEQTKARAAREQATTNARILARV-NH2; N-terminus assumed) | – | – | > 100
CC[C@H](C)[C@H](N)C(=O)N[C@H](C(=O)N[C@@H](CC(C)C)C(=O)N[C@@H](CO)C(=O)N[C@@H](CC(C)C)C(=O)N[C@@H](CC(=O)O)C(=O)N[C@H](C(=O)N1CCC[C@H]1C(=O)N[C@H](C(=O)NCC(=O)N[C@@H](CC(C)C)C(=O)N[C@@H](CC(C)C)C(=O)N[C@@H](CCC(N)=O)C(=O)N[C@H](C(=O)N[C@@H](CC(C)C)C(=O)N[C@@H](CC(C)C)C(=O)N[C@@H](CCC(=O)O)C(=O)N[C@@H](CCC(N)=O)C(=O)N[C@@H](C)C(=O)N[C@@H](CCCNC(=N)N)C(=O)N[C@@H](C)C(=O)N[C@@H](CCCNC(=N)N)C(=O)N[C@@H](C)C(=O)N[C@@H](C)C(=O)N[C@@H](CCCNC(=N)N)C(=O)N[C@@H](CCC(=O)O)C(=O)N[C@@H](CCC(N)=O)C(=O)N[C@@H](C)C(=O)N[C@H](C(=O)N[C@H](C(=O)N[C@@H](CC(N)=O)C(=O)N[C@@H](C)C(=O)N[C@@H](CCCNC(=N)N)C(=O)N[C@H](C(=O)N[C@@H](CC(C)C)C(=O)N[C@@H](C)C(=O)N[C@@H](CCCNC(=N)N)C(=O)N[C@H](C(=O)N[C@@H](CCSC)C(N)=O)C(C)C)[C@@H](C)CC)[C@@H](C)O)[C@@H](C)O)[C@@H](C)CC)[C@@H](C)CC)C(C)C)C(C)C [compound 356] (H-IVLSLDVPIGLLQILLEQARARAAREQATTNARILARVM-NH2) | – | 9 | –
SQEPPISLDLPLELLREVLEMTKADQLAQQAHSNRKLLDIA-NH2 [compound 89] | 12.7 | – | –
